Laboratory results as given in patent US9884856B2, “Crystal form of Dabrafenib mesylate and preparation method thereof” (Hangzhou Pushai Pharmaceutical Technology Co., LTD., priority 2013, dated 2018).
“And” between values parts separate entries of the source, which are not always exact repeats. Identical values can stand only once. “Also recorded” adds a separate entry of the source.

Columns and labels:
[1] = Decomposition temperature by TGA; type: physicochemical; settings: methanesulfonate
Experimental: The thermogravimetric analysis (TGA) data are collected by TA Instruments Q500 TGA; the instrument control software is Thermal Advantage and the analysis software is Universal Analysis. Generally, take 5˜15 mg sample and place it in a platinum pan, adopt the segmental high-resolution testing mode, and under the protection of 50 mL/min dry N2, heat the sample from room temperature to 350° C. at the heating rate of 10° C./min, the weight changes of the sample during the course are recorded by TA software simultaneously.
Compare decomposition temperatures obtained by TGA tests.

BRAFV600E-mutan melanoma = settings: patients with BRAFV600E-mutan melanoma; cited from earlier work
[2] = Storage stability of crystal forms (XRPD before and after placement); type: physicochemical; settings: methanesulfonate
Experimental: (§1) The stability is performed by comparing the storage stability and the stirring test in water on crystalline forms.
The storage stability is performed by placing the samples under a constant condition (i.e. under constant humidity or constant temperature) for a certain period of time, and then comparing their XRPDs before and after placement.

[3] = Stirring test in water (XRPD comparison); type: physicochemical; settings: methanesulfonate; for Stirring test in water: form after stirring: 10 mg in 1 mL water; for Stability in water or aqueous system(s): general statement
Experimental: as §1
The stirring test in water is performed by, for each crystalline form, adding an equal amount of the sample (10 mg) to an equal amount of water (1 mL) to form a suspension, stirring the suspensions for a certain time at room temperature, and then comparing their XRPDs.

[4] = Stability during wet granulation in formulation process (XRPD); type: physicochemical; settings: methanesulfonate; for Form of API in wet granule sample (XRPD): wet granulation with 50% aqueous ethanol, lactose monohydrate, microcrystalline cellulose
Source text: The stability of the Known Crystal Form I of Dabrafenib methanesulfonate and Crystal Form IV of the present invention during wet granulation in formulation process was studied.
Wet granulation experiments in the formulation process were parallel experiments. The specific steps are:
1) Blend API (the Known Crystal Form I or Crystal Form IV of the present invention), lactose (monohydrate) and microcrystalline cellulose uniformly.
2) Make the above mixture into soft materials by using appropriate amount of 50% aqueous ethanol solution, screen to produce wet granules.
3) Dry the wet granules and then granulate them, blend with polyethylene glycol 6000 uniformly and then compress them into tablets.
Characterize the Known Crystal Form I and Crystal Form IV of the present invention samples obtained from the formulation process of: (1) the sample obtained from physically mixing lactose monohydrate and microcrystalline cellulose at the ratios per the formulation; (2) the sample obtained from physically mixing of API, lactose monohydrate and microcrystalline cellulose at the ratios per the formulation; (3) the wet granule sample obtained from the wet granulation process (excluding the compressed tablets in Step 3). See XRPDs in FIG. 16 and FIG. 17.

[5] = Dissolution profile in ultrapure water (HPLC); type: physicochemical; settings: for Dissolution: ultrapure water
Experimental: The analysis data of high performance liquid chromatography (HPLC) are collected by Agilent 1260 with the chemical working station of B.04. The corresponding HPLC parameters in this research are: chromatographic column SB-C18 250×4.6 mm 5 μm; column temperature 35° C.; flow rate 0.6 mL/min; flow phase as shown below; wavelength 254 nm; sample inject volume 20 μl; operation time 30 min.
The comparison of dissolution profiles is performed by the following procedures: place about 6 mg the sample in a […], add 15 mL ultrapure water, and then seal the vial. A suspension is obtained from sonication with a working power of 40 Khz at room temperature, then take 1 mL of the suspension at 10 min, 30 min, 2 hr and 6 hr, respectively; filter it with 0.45 μm organic filter membrane to, take the filtrate to be measured by HPLC; stir the remaining suspension for 16 hr at room temperature, and then filter it with 0.45 μm organic filter membrane, take the filtrate to be measured by HPLC. FIG. 15 is the comparison plot of dissolution profiles of Crystal Form IV and the Known Crystal Form I in Experimental Example 1 (▴ refers to Crystal Form IV, ▮ refers to the Known Crystal Form I).

[6] = Hygroscopicity by dynamic vapor sorption (DVS); type: physicochemical
Experimental: The dynamic vapor sorption analysis (DVS) data are collected by TA Instruments Q5000 TGA; the instrument control software is Thermal Advantage and the analysis software is Universal Analysis. Generally, take 1˜10 mg of the sample and place it in a platinum pan, and the weight changes of the sample are recorded during the course of the relative humidity changing from 0% to 80% and then to 0%. According to the specifics of the samples, different adsorption and desorption steps may be used.
Compare hygroscopicity in weight changes of samples between 20%-80% RH obtained by DVS tests.

[7] = tested on: one or more Raf-family kinases; settings: disclosed in WO2009/137391 and CN200980126781.6; cited from earlier work
[8] = stored for 1 month at room temperature - 97% RH
[9] = stored for 1 month at room temperature
[10] = stirred 15 min at room temperature
[11] = 6 hours + 16 hours stirring at room temperature, methanesulfonate
[12] = sonication, room temperature, 10 minutes, methanesulfonate
[13] = sonication, room temperature, 30 minutes, methanesulfonate
[14] = sonication, room temperature, 2 hours, methanesulfonate
[15] = sonication, room temperature, 6 hours, methanesulfonate

SMILES	Storage stability (crystal form) [2, 8]	Storage stability (crystal form) [2, 9]	Stirring test in water: form after stirring [3, 10]	Stability in water or aqueous system(s) [3]	Stability in the wet granulation process [4]	Form of API in wet granule sample (XRPD) [4]	Dissolution [5, 11] [mg/mL]	Dissolution [5, 12] [mg/mL]	Dissolution [5, 13] [mg/mL]	Dissolution [5, 14] [mg/mL]	Dissolution [5, 15] [mg/mL]	also measured
CC(C)(C)c1nc(-c2cccc(NS(=O)(=O)c3c(F)cccc3F)c2F)c(-c2ccnc(N)n2)s1 [Crystal Form II, N-[3-[5-(2-amino-4-pyrimidinyl)-2-(tert-butyl)-thiazol-4-yl]-2-fluorophenyl]-2,6-difluorobenzene sulfonamide methanesulfonate]	–	–	–	–	–	–	–	–	–	–	–	Decomposition temperature [1]: 287 °C
CC(C)(C)c1nc(-c2cccc(NS(=O)(=O)c3c(F)cccc3F)c2F)c(-c2ccnc(N)n2)s1 [Dabrafenib]	–	–	–	–	–	–	–	–	–	–	–	Safety profile (BRAFV600E-mutan melanoma): acceptable safety profile; Therapeutic activity (BRAFV600E-mutan melanoma): has therapeutic activities
CC(C)(C)c1nc(-c2cccc(NS(=O)(=O)c3c(F)cccc3F)c2F)c(-c2ccnc(N)n2)s1 [Crystal Form IV, N-[3-[5-(2-amino-4-pyrimidinyl)-2-(tert-butyl)-thiazol-4-yl]-2-fluorophenyl]-2,6-difluorobenzene sulfonamide methanesulfonate]	remained unchanged and stable and 97% RH, respectively, the crystal forms remained unchanged.	remained unchanged and stable and 97% RH, respectively, the crystal forms remained unchanged.	still remained as methanesulfonate; also recorded: still remains its Crystal Form IV of methanesulfonate; also recorded: remained as methanesulfonate and after	better stability in water or aqueous system(s)	stable	remained as Crystal Form IV	0.000178	0.000532	0.000303	0.000376	0.000488	Stirring test in water: form after stirring ([3]; stirred overnight at room temperature): converted to its free base; also recorded: converts to its free base monohydrate; also recorded: free base (FIG. 14); Dissolution rate / dissolution quantity compared with the Known Crystal Form I ([5]; 0~22 h, any test point, methanesulfonate): higher than that of the Known Crystal Form I at any test point; also recorded: larger than that of the Known Crystal Form I at any test point; Time to the end point in water during dissolution ([5]; compared with the Known Crystal Form I): Form IV is shorter than that of the Known Crystal Form I.; Weight change (dynamic vapor sorption) ([6]; between 20% RH-80% RH): 2.0%
CC(C)(C)c1nc(-c2cccc(NS(=O)(=O)c3c(F)cccc3F)c2F)c(-c2ccnc(N)n2)s1 [Known Crystal Form I, N-[3-[5-(2-amino-4-pyrimidinyl)-2-(tert-butyl)-thiazol-4-yl]-2-fluorophenyl]-2,6-difluorobenzene sulfonamide methanesulfonate, reference compound]	remained unchanged and 97% RH, respectively, the crystal forms remained unchanged.	remained unchanged and 97% RH, respectively, the crystal forms remained unchanged.	consistent with the above-mentioned Dabrafenib free base hydrate; also recorded: converted to its free base; also recorded: converts to its free base monohydrate; also recorded: min, it converted to the free	readily converts to free base	unstable	partially or totally converted to Dabrafenib free base hydrate	7.48e-05	0.00012	7.23e-05	9.28e-05	8.88e-05	Form stability under humidity ([6]; 25° C. and 20-80% RH, methanesulfonate): stable at 25 °C and 20-; Hygroscopicity ([6]; DVS): Non-hygroscopic; the form is
CC(C)(C)c1nc(-c2cccc(NS(=O)(=O)c3c(F)cccc3F)c2F)c(-c2ccnc(N)n2)s1 [Dabrafenib methanesulfonate, N-[3-[5-(2-amino-4-pyrimidinyl)-2-(tert-butyl)-thiazol-4-yl]-2-fluorophenyl]-2,6-difluorobenzene sulfonamide methanesulfonate]	–	–	–	–	–	–	–	–	–	–	–	Inhibitory effects on Raf-family kinases [7]: exhibited inhibitory effects
